Reference: paper PMC11533140 (Frontiers in Pharmacology, 2024)
Where two headings read alike, the source gives them in different places.

Columns and labels:
MCF7 cells = assay: MTT antiproliferative assay, MCF7; assay type: cell-based; conditions: Homo sapiens
Description: (§1) The in vitro inhibition assays of all final compounds against PI3K were performed by Shanghai ChemPartner Co., Ltd. (China). The antiproliferative activities of the compounds against A2780, U87MG, MCF7, and DU145 cell lines were tested by the standard MTT method. CHO cells stably expressing the transcript of hERG were investigated by the automated whole-cell patch clamp technique, using the QPatch system (Sophion). The compound was tested with Salmonella typhimurium strains TA98 and TA100 with the plate incorporation method at seven doses. Apoptosis was evaluated using the One-Step TUNEL Apoptosis Assay Kit (FITC) (cat. no. MA0223; Meilunbio, Dalian, China), according to the manufacturer’s protocol. Male and female SD rats (SLRC Laboratory Animal Inc., Shanghai, China) were used, and the detailed pharmacokinetic procedures are described in Supplementary Material.

PI3Kδ = PI3Kδ (Homo sapiens, UniProt O00329); assay: in vitro PI3Kδ inhibition assay (isoform selectivity); assay type: biochemical; conditions: Table 4
Chain of PI3Kδ (O00329 whole entry, canonical isoform): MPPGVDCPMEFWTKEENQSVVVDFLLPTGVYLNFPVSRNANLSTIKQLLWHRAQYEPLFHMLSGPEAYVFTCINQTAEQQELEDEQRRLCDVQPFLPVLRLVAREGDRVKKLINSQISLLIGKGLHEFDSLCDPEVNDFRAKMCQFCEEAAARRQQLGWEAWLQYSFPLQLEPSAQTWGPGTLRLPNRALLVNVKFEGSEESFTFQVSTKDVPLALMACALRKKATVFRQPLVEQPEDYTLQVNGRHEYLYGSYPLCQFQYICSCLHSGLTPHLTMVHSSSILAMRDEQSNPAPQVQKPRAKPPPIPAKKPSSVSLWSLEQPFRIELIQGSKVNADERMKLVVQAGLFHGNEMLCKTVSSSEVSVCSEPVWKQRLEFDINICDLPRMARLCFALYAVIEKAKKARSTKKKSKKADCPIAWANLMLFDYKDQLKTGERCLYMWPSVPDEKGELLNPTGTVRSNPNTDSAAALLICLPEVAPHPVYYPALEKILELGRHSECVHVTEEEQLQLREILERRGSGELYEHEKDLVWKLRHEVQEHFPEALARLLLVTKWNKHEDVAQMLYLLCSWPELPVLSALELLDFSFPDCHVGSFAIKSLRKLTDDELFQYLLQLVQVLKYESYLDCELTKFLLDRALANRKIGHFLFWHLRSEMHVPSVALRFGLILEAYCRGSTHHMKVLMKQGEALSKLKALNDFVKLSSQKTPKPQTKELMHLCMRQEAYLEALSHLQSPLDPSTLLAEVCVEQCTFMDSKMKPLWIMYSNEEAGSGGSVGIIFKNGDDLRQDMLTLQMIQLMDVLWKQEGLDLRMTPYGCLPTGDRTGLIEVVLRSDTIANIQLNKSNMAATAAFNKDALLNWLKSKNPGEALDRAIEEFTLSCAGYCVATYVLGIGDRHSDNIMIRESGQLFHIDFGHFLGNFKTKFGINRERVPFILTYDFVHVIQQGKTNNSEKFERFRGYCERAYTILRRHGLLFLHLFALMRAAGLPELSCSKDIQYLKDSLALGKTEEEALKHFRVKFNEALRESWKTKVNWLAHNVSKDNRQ
Chain of PI3Kδ (P27986 whole entry partner, canonical isoform): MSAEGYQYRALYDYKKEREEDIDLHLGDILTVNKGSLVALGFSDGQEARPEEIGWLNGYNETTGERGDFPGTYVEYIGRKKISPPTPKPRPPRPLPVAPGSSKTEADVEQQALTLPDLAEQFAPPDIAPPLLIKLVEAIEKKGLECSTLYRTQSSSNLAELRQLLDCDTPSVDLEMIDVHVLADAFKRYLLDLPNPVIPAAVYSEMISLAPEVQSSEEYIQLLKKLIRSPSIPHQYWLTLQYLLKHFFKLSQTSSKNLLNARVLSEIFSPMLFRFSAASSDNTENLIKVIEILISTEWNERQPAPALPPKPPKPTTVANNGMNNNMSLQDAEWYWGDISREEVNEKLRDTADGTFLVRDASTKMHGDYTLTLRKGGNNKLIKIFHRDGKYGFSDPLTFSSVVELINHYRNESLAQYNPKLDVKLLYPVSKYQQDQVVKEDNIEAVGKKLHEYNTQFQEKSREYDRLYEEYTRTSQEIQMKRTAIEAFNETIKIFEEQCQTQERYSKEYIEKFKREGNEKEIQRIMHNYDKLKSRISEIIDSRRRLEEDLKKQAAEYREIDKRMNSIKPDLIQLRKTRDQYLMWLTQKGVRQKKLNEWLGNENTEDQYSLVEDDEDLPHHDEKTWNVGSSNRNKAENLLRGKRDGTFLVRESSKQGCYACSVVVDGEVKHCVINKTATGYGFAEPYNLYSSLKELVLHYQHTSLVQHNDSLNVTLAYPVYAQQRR
Description: as §1

PI3Kγ = PI3Kγ (Homo sapiens, UniProt P48736); assay: in vitro PI3Kγ inhibition assay (isoform selectivity); assay type: biochemical; conditions: Table 4
Chain of PI3Kγ (P48736 whole entry, canonical isoform): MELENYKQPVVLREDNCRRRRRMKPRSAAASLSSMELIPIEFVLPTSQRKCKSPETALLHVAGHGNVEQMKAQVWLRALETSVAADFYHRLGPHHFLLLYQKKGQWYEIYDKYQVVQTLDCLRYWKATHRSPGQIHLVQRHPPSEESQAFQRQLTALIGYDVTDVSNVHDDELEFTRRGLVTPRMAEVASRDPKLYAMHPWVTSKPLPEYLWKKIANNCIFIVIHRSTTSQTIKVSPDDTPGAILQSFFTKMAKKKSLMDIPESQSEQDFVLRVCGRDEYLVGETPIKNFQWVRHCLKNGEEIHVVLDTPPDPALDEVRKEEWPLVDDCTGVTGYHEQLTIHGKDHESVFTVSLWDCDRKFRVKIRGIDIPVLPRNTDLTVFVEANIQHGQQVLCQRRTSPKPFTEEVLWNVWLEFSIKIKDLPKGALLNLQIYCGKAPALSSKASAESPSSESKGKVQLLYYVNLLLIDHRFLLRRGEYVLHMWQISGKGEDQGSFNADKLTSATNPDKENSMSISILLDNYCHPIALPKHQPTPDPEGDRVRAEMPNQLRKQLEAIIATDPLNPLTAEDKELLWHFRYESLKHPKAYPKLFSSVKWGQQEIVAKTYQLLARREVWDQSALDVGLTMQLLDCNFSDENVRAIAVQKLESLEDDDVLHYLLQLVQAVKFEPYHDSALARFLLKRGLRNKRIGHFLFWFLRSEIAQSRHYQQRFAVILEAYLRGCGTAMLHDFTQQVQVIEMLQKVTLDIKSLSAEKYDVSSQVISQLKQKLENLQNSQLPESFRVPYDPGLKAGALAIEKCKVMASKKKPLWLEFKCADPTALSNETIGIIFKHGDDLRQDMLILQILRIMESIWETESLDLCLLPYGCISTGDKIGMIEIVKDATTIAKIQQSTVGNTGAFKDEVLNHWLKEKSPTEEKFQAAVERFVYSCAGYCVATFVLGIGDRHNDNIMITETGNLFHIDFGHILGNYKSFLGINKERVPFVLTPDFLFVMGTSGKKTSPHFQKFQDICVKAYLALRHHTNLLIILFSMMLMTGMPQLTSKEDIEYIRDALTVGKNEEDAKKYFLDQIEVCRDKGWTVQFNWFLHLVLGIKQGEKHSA
Description: as §1

mTOR = mTOR (Homo sapiens, UniProt P42345); assay: in vitro mTOR inhibition assay (selectivity); assay type: biochemical; conditions: Table 4
Description: as §1

A2780 cells = assay: MTT antiproliferative assay, A2780; assay type: cell-based; conditions: Homo sapiens
Description: as §1

DU145 cells = assay: MTT antiproliferative assay, DU145; assay type: cell-based; conditions: Homo sapiens, DU-145
Description: as §1

U87MG cells = assay: MTT antiproliferative assay, U87MG; assay type: cell-based; conditions: Homo sapiens, U-87 MG
Description: as §1

PI3Kα = PI3Kα (Homo sapiens, UniProt P42336); assay: in vitro PI3Kα kinase inhibition assay; assay type: biochemical
Chain of PI3Kα (P42336 whole entry): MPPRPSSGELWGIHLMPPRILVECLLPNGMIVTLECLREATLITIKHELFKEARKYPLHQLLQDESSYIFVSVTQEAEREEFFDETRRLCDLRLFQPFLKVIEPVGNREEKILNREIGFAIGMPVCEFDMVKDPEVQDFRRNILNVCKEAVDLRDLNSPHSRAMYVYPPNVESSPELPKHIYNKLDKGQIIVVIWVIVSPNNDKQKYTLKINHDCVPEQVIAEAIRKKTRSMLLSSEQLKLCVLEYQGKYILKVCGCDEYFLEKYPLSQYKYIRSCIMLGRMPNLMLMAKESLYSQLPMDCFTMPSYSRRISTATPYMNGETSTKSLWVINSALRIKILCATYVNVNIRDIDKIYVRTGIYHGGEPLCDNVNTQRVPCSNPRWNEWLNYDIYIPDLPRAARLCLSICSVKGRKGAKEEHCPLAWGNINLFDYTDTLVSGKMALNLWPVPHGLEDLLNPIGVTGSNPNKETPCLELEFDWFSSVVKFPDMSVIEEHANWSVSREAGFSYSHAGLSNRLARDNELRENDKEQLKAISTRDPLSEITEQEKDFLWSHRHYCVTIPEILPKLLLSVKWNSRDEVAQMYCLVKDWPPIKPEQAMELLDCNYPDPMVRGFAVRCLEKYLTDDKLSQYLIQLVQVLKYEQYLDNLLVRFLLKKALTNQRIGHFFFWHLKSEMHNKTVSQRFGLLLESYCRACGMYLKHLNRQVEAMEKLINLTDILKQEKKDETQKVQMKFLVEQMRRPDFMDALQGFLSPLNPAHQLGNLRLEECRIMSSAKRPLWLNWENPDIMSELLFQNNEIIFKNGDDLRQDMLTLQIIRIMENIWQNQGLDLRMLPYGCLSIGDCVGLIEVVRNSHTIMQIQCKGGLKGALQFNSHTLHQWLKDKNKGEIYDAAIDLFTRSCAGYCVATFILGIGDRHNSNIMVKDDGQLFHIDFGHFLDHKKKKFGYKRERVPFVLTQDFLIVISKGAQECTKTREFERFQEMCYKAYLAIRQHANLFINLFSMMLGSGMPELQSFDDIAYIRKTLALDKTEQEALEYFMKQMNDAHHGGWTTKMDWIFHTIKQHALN
Chain of PI3Kα (P27986 whole entry partner): as the sequence (P27986 whole entry partner, canonical isoform) above
Description: as §1

HL-7702 cells = assay: inhibitory activity on normal cells, HL-7702; assay type: cell-based; conditions: Homo sapiens, L02
From the text: (§2) Several clinical PI3K candidates were severely intolerable to patients due to fatal hepatotoxicity and, thus, failed in clinical trials. Thus, evaluating the selectivity of compounds toward normal cells might reduce the risk of clinical failure of new compounds.

MRC-5 cells = assay: inhibitory activity on normal cells, MRC-5; assay type: cell-based; conditions: Homo sapiens, MRC5
From the text: as §2

PI3Kβ = PI3Kβ (Homo sapiens, UniProt P42338); assay: in vitro PI3Kβ inhibition assay (isoform selectivity); assay type: biochemical; conditions: Table 4
Chain of PI3Kβ (P42338 whole entry, canonical isoform): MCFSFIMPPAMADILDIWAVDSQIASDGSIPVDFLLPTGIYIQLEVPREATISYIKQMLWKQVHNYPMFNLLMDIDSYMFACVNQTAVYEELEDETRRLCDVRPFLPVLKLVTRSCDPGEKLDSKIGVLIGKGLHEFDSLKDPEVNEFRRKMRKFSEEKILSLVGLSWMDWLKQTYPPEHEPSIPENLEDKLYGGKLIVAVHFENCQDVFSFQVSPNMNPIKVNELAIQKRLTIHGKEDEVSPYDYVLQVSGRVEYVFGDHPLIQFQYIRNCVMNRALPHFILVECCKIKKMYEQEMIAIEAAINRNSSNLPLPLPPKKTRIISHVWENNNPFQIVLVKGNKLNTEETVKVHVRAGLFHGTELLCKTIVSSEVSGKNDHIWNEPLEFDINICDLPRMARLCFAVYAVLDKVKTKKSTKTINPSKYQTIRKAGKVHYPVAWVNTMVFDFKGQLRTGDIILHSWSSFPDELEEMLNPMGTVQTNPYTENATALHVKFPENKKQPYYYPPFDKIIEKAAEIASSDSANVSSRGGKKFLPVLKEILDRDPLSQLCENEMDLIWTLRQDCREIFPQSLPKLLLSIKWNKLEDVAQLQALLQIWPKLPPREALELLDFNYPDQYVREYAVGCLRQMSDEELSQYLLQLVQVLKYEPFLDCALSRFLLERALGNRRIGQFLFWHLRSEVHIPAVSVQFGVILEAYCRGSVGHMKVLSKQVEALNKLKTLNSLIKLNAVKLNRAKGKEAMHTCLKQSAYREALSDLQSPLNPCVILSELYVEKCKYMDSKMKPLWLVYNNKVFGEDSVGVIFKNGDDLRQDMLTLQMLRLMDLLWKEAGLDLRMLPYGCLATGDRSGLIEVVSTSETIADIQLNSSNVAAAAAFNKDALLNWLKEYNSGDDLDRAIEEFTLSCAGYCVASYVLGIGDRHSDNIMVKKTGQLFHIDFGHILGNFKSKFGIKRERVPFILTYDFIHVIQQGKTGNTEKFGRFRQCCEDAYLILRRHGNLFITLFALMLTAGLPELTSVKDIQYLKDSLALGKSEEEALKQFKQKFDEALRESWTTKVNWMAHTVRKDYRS
Chain of PI3Kβ (P27986 whole entry partner, canonical isoform): as the sequence (P27986 whole entry partner, canonical isoform) above
Description: as §1

[1] = Figure 5 activity bins, read-out: IC50 range in SAR figure (PI3Kα)
[2] = mean of three independent experiments, read-out: IC50 against PI3Kα
[3] = Figure 5 activity bins, read-out: weak activity IC50 in SAR figure (PI3Kα)

SMILES	IC50 (PI3Kα; [1]) [nM]	IC50 (PI3Kα; [2]) [nM]	IC50 (PI3Kα; [3]) [nM]	further results
N#Cc1c(-c2cccc(O)c2)nc(N2CCOCC2)nc1N1CCOCC1 [Compound 17e]	30 to 300	88.5 ± 6.1		IC50 (MCF7 cells): 370 ± 30 nM; IC50 (PI3Kδ): 55.6 ± 3.8 nM; IC50 (PI3Kγ): 318 ± 19 nM; IC50 (mTOR): > 10000 nM; IC50 (A2780 cells): 390 ± 30 nM; IC50 (DU145 cells): 1520 ± 110 nM; IC50 (U87MG cells): 1750 ± 220 nM; IC50 (PI3Kα; Table 4, read-out: IC50 PI3Kα (isoform selectivity study)): 86.1 ± 7.8 nM; IC50 (HL-7702 cells): 6170 ± 750 nM; IC50 (MRC-5 cells): 2190 ± 110 nM; IC50 (PI3Kβ): 152 ± 18.7 nM
N#Cc1c(-c2ccc(O)cc2)nc(N2CCOCC2)nc1N1CCOCC1 [Compound 17f]	400 to 800	473 ± 28.3		
COc1cccc(-c2nc(N3CCOCC3)nc(N3CCOCC3)c2C#N)c1 [Compound 17g]		3270	> 1000	
N#Cc1c(-c2ccc(N)cc2)nc(N2CCOCC2)nc1N1CCOCC1 [Compound 17h]	400 to 800	477 ± 52.4		
N#Cc1c(-c2cccnc2)nc(N2CCOCC2)nc1N1CCOCC1 [Compound 17i]	400 to 800	792 ± 87.7		
N#Cc1c(-c2ccncc2)nc(N2CCOCC2)nc1N1CCOCC1 [Compound 17j]		3040	> 1000	
